Results published in patent publication US10568898B2, “Lipophilic nanoparticles for drug delivery” (priority 2013, dated 2020).

What was measured:
Ramos cells = type: cell-based; conditions: FIG. 7, free doxorubicin at 100 nM-1 μM, HDL-Andrographolide NP at 5 nM
Protocol: For suspension cell lines (Ramos, Jurkat, and SUDHL4), confluent cells were deposited onto 96-well plates at 1×10^5 cells/mL, then treated with either: 1-10 nM HDL NP, 1-10 nM HDL-drug NP, 10 nM-1 μM free drug, or 10 nM human HDL. All solutions were in 1% PBS, in a total volume of 100 μL. Cells were incubated for 48 hours with the treatment, then assessed for viability using a 3-(4,5-dimethylthiazol-2-yl)-5-(3-carboxymethoxyphenyl)-2-(4-sulfo-phenyl)-2H-tetrazolium (MTS) cell proliferation assay. 20 μL of the MTS solution (G1112; Promega) was added to each well; absorbance at 490 nm was measured immediately and after 90 min. Survival for a sample was presented as absorbance for that sample at 90 min, compared to absorbance for the non-treated control at 90 min. Since metabolically active cells reduce MTS, lower absorbance indicates cell death.
Cytotoxicity of the HDL-Doxorobucin NPs was assessed by incubating with lymphoma cells in culture for 48-72 hours, and measuring cell viability by a 3-(4,5-dimethylthiazol-2-yl)-5-(3-carboxymethoxyphenyl)-2-(4-sulfophenyl)-2H-tetrazolium (MTS) assay. […]
For suspension cell lines (Ramos and SUDHL4), 90 μl confluent cells were deposited into 96-well plates at 1×10^5 cells/mL, then treated with 10 μl of either: 1-10 nM HDL NP, 1-10 nM HDL-drug NP, 10 nM-1 μM free drug, 10 nM human HDL, or PBS. […] Cells were incubated for 48 hours with the treatment, and then assessed for viability using a 3-(4,5-dimethylthiazol-2-yl)-5-(3-carboxymethoxyphenyl)-2-(4-sulfo-phenyl)-2H-tetrazolium (MTS) cell proliferation assay. Twenty μL of the MTS solution (G1112; Promega) was added to each well; absorbance at 490 nm was measured immediately and after 90 minutes. […] Cell viability was calculated according to the following formula: Cell viability=(OD490, 90 min(sample)−OD490, 90 min(0% survival control))/(OD490, 90 min(100% survival control)−OD490, 90 min(0% survival control))×100%
Cytotoxicity of the Dox-HDL-NPs was assessed by incubating Dox-HDL-NP, HDL-NP, or free doxorubicin at varying doses with different lymphoma cell lines. […]

[1] = system: LNCaP adenocarcinoma cell lines; test: Fluorescence microscopy of doxorubicin uptake; type: cell-based, human; conditions: 18 hours after treatment
Protocol: To further confirm delivery of doxorubicin to cancer cells with HDL-NP, LNCaP adenocarcinoma cell lines were assessed by fluorescence microscopy after treatment with free doxorubicin, Dox-HDL-NP, and HDL-NP.

H9c2 cells = conditions: 48- and 72-hour treatment, same concentrations as lymphoma lines
Protocol: For adherent lines (LNCaP, MDA-MB-231, and H9c2), cells were deposited onto 96-well plates at a concentration of 5×10^4 cells/mL, 24 hours prior to treatment. Cells were then treated, incubated, and assessed as described above for the suspension cells.
The effects of Dox-HDL-NP and free doxorubicin in H9c2 cardiomyoblasts, a rat-derived cardiomyocyte cell line that has been used extensively in mechanistic studies of doxorubicin toxicity in heart cells, have been studied.

[2] = clinical use; cited from earlier work

For `C=C1CC[C@@H]2[C@](C)(CO)[C@H](O)CC[C@@]2(C)[C@@H]1C/C=C1/C(=O)OC[C@H]1O` [Andrographolide], the killing effect (Ramos cells) was “slight protective effect on cells”.

With `CC[C@]1(O)C[C@H]2CN(CCc3c([nH]c4ccccc34)[C@@](C(=O)OC)(c3cc4c(cc3OC)N(C=O)[C@H]3[C@@](O)(C(=O)OC)[C@H](OC(C)=O)[C@]5(CC)C=CCN6CC[C@]43[C@@H]65)C2)C1` [Vincristine] the killing effect (Ramos cells) was “kills with comparable efficiency to the bare HDL NP”.

In the case of `COc1cccc2c1C(=O)c1c(O)c3c(c(O)c1C2=O)C[C@@](O)(C(=O)CO)C[C@@H]3O[C@H]1C[C@H](N)[C@H](O)[C@H](C)O1` [doxorubicin], the killing effect (Ramos cells) is reported as “substantial killing effect”, the “doxorubicin fluorescence in cells” value [1] is reported as “fluorescence was clearly seen” and the “cell viability in cardiomyoblasts” value (H9c2 cells) is reported as “significant reduction in viability”. The “cumulative dose above which cardiotoxicity typically occurs” value [2] was “exceeds 450 mg/m^2 of body surface area”.
